Results: ChEMBL document CHEMBL1955736, “The anomeric mixture of some O-galactolipid derivatives is more toxic against cancer cells than either anomer alone” (Bioorg Med Chem Lett, 2012)

Assays:
[1] = system: HeLa; experiment: Cytotoxicity against human HeLa cells after 72 hrs by MTT assay; format: functional, cell-based
[2] = system: HCT-116; experiment: Cytotoxicity against human HCT116 cells after 72 hrs by MTT assay; format: functional, cell-based; settings: HCT-116, 72 h
[3] = system: A549; experiment: Cytotoxicity against human A549 cells after 72 hrs by MTT assay; format: functional, cell-based; settings: A549, 72 h
[4] = system: HepG2; experiment: Cytotoxicity against human HepG2 cells after 72 hrs by MTT assay; format: functional, cell-based; settings: HepG2, 72 h
[5] = Cytotoxicity against mouse 3T3L1 cells assessed as viability at 100 ug/mL after 72 hrs by MTT assay; format: cell-based; settings: 3T3-L1 cells, read-out: Activity

Row | SMILES | IC50 [1] | IC50 [2] | IC50 [3] | IC50 [4] | viability at 72 h, 100 ug/mL [5]
1 | CCCCCCCCCCCCCCCCO[C@@H]1O[C@H](CO)[C@H](O)[C@H](O)[C@H]1O | > 240 µM | > 240 µM | 151 µM | > 240 µM | 
2 | CCCCCCCCCCO[C@H]1O[C@H](CO)[C@H](O)[C@H](O)[C@H]1O | > 240 µM | > 240 µM | 144 µM | > 240 µM | 
3 | CCCCCCCCCCCO[C@H]1O[C@H](CO)[C@H](O)[C@H](O)[C@H]1O | 196 µM | 152 µM | 102 µM | 151 µM | 
4 | CCCCCCCCCCCCO[C@H]1O[C@H](CO)[C@H](O)[C@H](O)[C@H]1O | 146 µM | 88.8 µM | 56.7 µM | 138 µM | 
5 | CCCCCCCCCCCCCO[C@H]1O[C@H](CO)[C@H](O)[C@H](O)[C@H]1O | 73.3 µM | 75.1 µM | 51.8 µM | 89.9 µM | 
6 | CCCCCCCCCCCCCCO[C@H]1O[C@H](CO)[C@H](O)[C@H](O)[C@H]1O | 67 µM | 72.8 µM | 49.6 µM | 68.1 µM | 
7 | CCCCCCCCCCCCCCCO[C@H]1O[C@H](CO)[C@H](O)[C@H](O)[C@H]1O | 61.3 µM | 52.5 µM | 46.8 µM | > 240 µM | 
8 | CCCCCCCCCCCCCCCCO[C@H]1O[C@H](CO)[C@H](O)[C@H](O)[C@H]1O | 54.6 µM | 42.7 µM | 38.5 µM | > 240 µM | 
9 | CCCCCCCCCCO[C@@H]1O[C@H](CO)[C@H](O)[C@H](O)[C@H]1O | > 240 µM | > 240 µM | 157 µM | > 240 µM | 
10 | CCCCCCCCCCCO[C@@H]1O[C@H](CO)[C@H](O)[C@H](O)[C@H]1O | 202 µM | 155 µM | 118 µM | 200 µM | 
11 | CCCCCCCCCCCCO[C@@H]1O[C@H](CO)[C@H](O)[C@H](O)[C@H]1O | 151 µM | 97.8 µM | 77.2 µM | 162 µM | 
12 | CCCCCCCCCCCCCO[C@@H]1O[C@H](CO)[C@H](O)[C@H](O)[C@H]1O | 148 µM | 85.3 µM | 62 µM | 142 µM | 
13 | CCCCCCCCCCOC1O[C@H](CO)[C@H](O)[C@H](O)[C@H]1O (mixture of isomers) | 180 µM | 140 µM | 107 µM | 192 µM | 
14 | CCCCCCCCCCCOC1O[C@H](CO)[C@H](O)[C@H](O)[C@H]1O (mixture of isomers) | 60.5 µM | 50.9 µM | 45.6 µM | 68.2 µM | 
15 | CCCCCCCCCCCCOC1O[C@H](CO)[C@H](O)[C@H](O)[C@H]1O (mixture of isomers) | 58.6 µM | 47.7 µM | 40.8 µM | 63.4 µM | 
16 | CCCCCCCCCCCCCOC1O[C@H](CO)[C@H](O)[C@H](O)[C@H]1O (mixture of isomers) | 57.1 µM | 38.7 µM | 39.3 µM | 54.3 µM | 
17 | CCCCCCCCCCCCCCCCOC1O[C@H](CO)[C@H](O)[C@H](O)[C@H]1O (mixture of isomers) | 45 µM | 32.2 µM | 25.3 µM | > 240 µM | 94.3%
